# Measured values: ChEMBL document CHEMBL1126287, “Analogues of natural phloroglucinols as antagonists against both thromboxane A2 and leukotriene D4” (J Med Chem, 1992)
# Tests used:
# Type in all cases: functional
# Cavia porcellus [1] = species on record: Cavia porcellus; test: Inhibitory activity of the Compound was tested against U-46619 induced contraction of guinea pig trachea.
# Cavia porcellus [2] = species on record: Cavia porcellus; test: Inhibitory activity of the Compound was tested against U-46619 induced contraction of guinea pig trachea at 1*10e-5 M concentration.
# Cavia porcellus [3] = species on record: Cavia porcellus; test: Inhibitory activity of the Compound was tested against LTD4 induced contraction of guinea pig trachea at 1*10e-5 concentration.
# Cavia porcellus [4] = species on record: Cavia porcellus; test: Inhibitory activity of the Compound was tested against U-46619 induced contraction of guinea pig trachea at 3*10e-6 M concentration.
# Cavia porcellus [5] = species on record: Cavia porcellus; test: Inhibitory activity of the Compound was tested against U-46619 induced contraction of guinea pig trachea at 2*10e-5 M concentration.
# Cavia porcellus [6] = species on record: Cavia porcellus; test: Inhibitory activity of the Compound was tested against LTD4 induced contraction of guinea pig trachea at 2*10e-5 M concentration.
# Cavia porcellus [7] = species on record: Cavia porcellus; test: Inhibitory activity of the Compound was tested against LTD4 induced contraction of guinea pig trachea at 3*10e-6 M concentration.
# Cavia porcellus [8] = species on record: Cavia porcellus; test: Inhibitory concentration of the Compound was tested against LTD4 induced contraction of guinea pig trachea.
# Cavia porcellus [9] = species on record: Cavia porcellus; test: Inhibitory activity of the Compound was tested against LTD4 induced contraction of guinea pig trachea at 1*10e-5 M concentration.
# Cavia porcellus [10] = species on record: Cavia porcellus; test: Inhibitory activity of the Compound was tested against U-46619 induced contraction of guinea pig trachea at 2*10e-5 concentration.
# Cavia porcellus [11] = species on record: Cavia porcellus; test: Inhibitory activity of the Compound was tested against LTD4 induced contraction of guinea pig trachea at 2*10e-6 M concentration.
# Cavia porcellus [12] = species on record: Cavia porcellus; test: Inhibitory activity of the Compound was tested against U-46619 induced contraction of guinea pig trachea at 2*10e-6 M concentration.
# Cavia porcellus [13] = species on record: Cavia porcellus; test: Inhibitory activity of the Compound was tested against LTD4 induced contraction of guinea pig trachea at 2*10e-7 M concentration.
# Cavia porcellus [14] = species on record: Cavia porcellus; test: Inhibitory activity of the Compound was tested against LTD4 induced contraction of guinea pig trachea at 1*10e-4 M concentration.
# Cavia porcellus [15] = species on record: Cavia porcellus; test: Inhibitory activity of the Compound was tested against LTD4 induced contraction of guinea pig trachea at 2*10e5- M concentration.
# Cavia porcellus [16] = species on record: Cavia porcellus; test: Inhibitory activity of the Compound was tested against U-46619 induced contraction of guinea pig trachea at 1*10e-4 M concentration.
# Cavia porcellus [17] = species on record: Cavia porcellus; test: Inhibitory activity of the Compound was tested against U-46619 induced contraction of guinea pig trachea at 3*10e-8 M concentration.
# Cavia porcellus [18] = species on record: Cavia porcellus; test: Inhibitory activity of the Compound was tested against U-46619 induced contraction of guinea pig trachea at 2 *10e-7 M concentration.
# Cavia porcellus [19] = species on record: Cavia porcellus; test: Inhibitory activity of the Compound was tested against U-46619 induced contraction of 2*10e-5 M concentration.
# Cavia porcellus [20] = species on record: Cavia porcellus; test: Inhibitory activity of the Compound was tested against U-46619 induced contraction of guinea pig trachea at 2*10e-7 M concentration.
# Cavia porcellus [21] = species on record: Cavia porcellus; test: Inhibitory activity of the Compound was tested against LTD4 induced contraction of guinea pig trachea at 1*10e-6 M concentration.
# Cavia porcellus [22] = species on record: Cavia porcellus; test: Inhibitory activity of the Compound was tested against LTD4 induced contraction of guinea pig trachea at 3*10e-7 M concentration.
# Cavia porcellus [23] = species on record: Cavia porcellus; test: Inhibitory activity of the Compound was tested against U-46619 induced contraction of guinea pig trachea at 1*10e-6 M concentration.
# Cavia porcellus [24] = species on record: Cavia porcellus; test: Inhibitory activity of the Compound was tested against U-46619 induced contraction of guinea pig trachea at 3*10e-7 M concentration.
SMILES,IC50 (Cavia porcellus [1]),IC50 (Cavia porcellus [8]),Inhibition (Cavia porcellus [4]),Inhibition (Cavia porcellus [5]),Inhibition (Cavia porcellus [6]),other results
CCCC1(CCC)C(=O)C(C(=O)C(C)C)=C(O)C(C(=O)C(C)C)=C1O,6900 nM,5900 nM,25.3%,81.7%,88.5%,Inhibition (Cavia porcellus [7]): 28.5%
CCCCCC(=O)c1c(O)cc(O)cc1O,8900 nM,7600 nM,,,93.9%,Inhibition (Cavia porcellus [9]): 62.3%; Inhibition (Cavia porcellus [10]): 100%; Inhibition (Cavia porcellus [2]): 56.9%
COC1(OC)C(=O)C(C/C=C(\C)CCC=C(C)C)=C(O)C(CC=C(C)C)=C1O,,,,94.9%,63.6%,
CCCCCC(=O)c1c(O)cc(O)c(C(=O)CCCCC)c1O,,,,25.9%,43.3%,
CCCCC1(CCCC)C(=O)C(C(=O)C(C)C)=C(O)C(C(=O)C(C)C)=C1O,1800 nM,1200 nM,58.6%,91.6%,100%,Inhibition (Cavia porcellus [7]): 66.5%
CCCCCC1(CCCCC)C(=O)C(C(=O)C(C)C)=C(O)C(C(=O)C(C)C)=C1O,5600 nM,2300 nM,17%,80.4%,95%,Inhibition (Cavia porcellus [7]): 58.3%
CC(C)=CCC/C(C)=C/COc1cc(O)c(C(=O)C(C)C)c(O)c1C,,,,10.8%,,Inhibition (Cavia porcellus [14]): 50.9%; Inhibition (Cavia porcellus [15]): 12.6%; Inhibition (Cavia porcellus [16]): 50%
CC(C)C(=O)c1c(C(C)C)nn2ccccc12 [IBUDILAST],,,,,,Inhibition (Cavia porcellus [17]): 85.4%
CC(=O)c1c(O)cc(O)c(C(C)=O)c1O,,,,44.3%,39.1%,
CC(C)C(=O)C1=C(O)C(C)(C)C(O)=C(C(=O)C(C)C)C1=O,580 nM,570 nM,80.2%,,,Inhibition (Cavia porcellus [11]): 60.7%; Inhibition (Cavia porcellus [13]): 36.8%; Inhibition (Cavia porcellus [18]): 38.5%; Inhibition (Cavia porcellus [12]): 61.2%; Inhibition (Cavia porcellus [7]): 87%
CCCC(=O)c1c(O)cc(O)cc1O,,,,,,Inhibition (Cavia porcellus [2]): 27.3%
CCC1(CC)C(=O)C(C(=O)C(C)C)=C(O)C(C(=O)C(C)C)=C1O,310 nM,350 nM,,,,Inhibition (Cavia porcellus [21]): 87.8%; Inhibition (Cavia porcellus [22]): 44.9%; Inhibition (Cavia porcellus [23]): 84.2%; Inhibition (Cavia porcellus [24]): 49%
CCCCCCCC(=O)c1c(O)cc(O)c(C(=O)CCCCCCC)c1O,,,,15.1%,17.4%,

# Now from value to molecule, other results behind:
IC50 (Cavia porcellus [1]),IC50 (Cavia porcellus [8]),SMILES,Inhibition (Cavia porcellus [4]),Inhibition (Cavia porcellus [5]),Inhibition (Cavia porcellus [6]),other results
6000 nM,,CCC(C)C(=O)c1c(O)cc(O)cc1O (stereo not given),13.8%,,,Inhibition (Cavia porcellus [2]): 76.3%; Inhibition (Cavia porcellus [3]): 25.4%
1700 nM,1400 nM,CCC(C)C(=O)c1c(O)cc(O)c(C(=O)C(C)CC)c1O (stereo not given),,98%,80.1%,Inhibition (Cavia porcellus [11]): 45.5%; Inhibition (Cavia porcellus [12]): 34.7%
4700 nM,,CC(C)CC(=O)c1c(O)cc(O)cc1O,22.7%,,,Inhibition (Cavia porcellus [2]): 96.6%
,12000 nM,CCC(=O)c1c(O)cc(O)c(C(=O)CC)c1O,,53.4%,97.1%,Inhibition (Cavia porcellus [11]): 42.5%; Inhibition (Cavia porcellus [13]): 30.8%
6600 nM,,CC(C)C(=O)c1c(O)cc(O)cc1O [PHLOROISOBUTYROPHENONE],11%,,,Inhibition (Cavia porcellus [9]): 32%; Inhibition (Cavia porcellus [2]): 70.4%
2700 nM,1400 nM,CCCC(=O)c1c(O)cc(O)c(C(=O)CCC)c1O,,,87%,Inhibition (Cavia porcellus [11]): 59.4%; Inhibition (Cavia porcellus [19]): 72.5%; Inhibition (Cavia porcellus [13]): 12.5%; Inhibition (Cavia porcellus [12]): 57%; Inhibition (Cavia porcellus [20]): 8.4%
1500 nM,560 nM,CC(C)CC(=O)c1c(O)cc(O)c(C(=O)CC(C)C)c1O,,100%,100%,Inhibition (Cavia porcellus [11]): 78.2%; Inhibition (Cavia porcellus [13]): 29.9%; Inhibition (Cavia porcellus [12]): 42%; Inhibition (Cavia porcellus [20]): 22.6%
,1200 nM,CC(C)C(=O)c1c(O)cc(O)c(C(=O)C(C)C)c1O,,53.6%,92.3%,Inhibition (Cavia porcellus [11]): 48.5%; Inhibition (Cavia porcellus [13]): 28.9%
